What was measured:
MC3T3E1 cells = experiment: Cell proliferation, PicoGreen dsDNA assay; format: cell-based; conditions: 100 μM in regular growth medium
Procedure: FIG. 3. 6-Bnz-cAMP promotes cell growth in the earliest day of cell culture (Day 1) and maintains the cell proliferation rate at Day 7 and Day 14. Error bars represent SD.
MC3T3E1 subtype 4 cell line was purchased from the […] (ATCC). The cells were grown to confluence, then seeded onto PLAGA discs at a density of 50,000 cells/scaffold. The cells were cultured on the discs in vitro in a 37° C. and 5% CO2 environment, using MEM alpha cell culture medium +10% Fetal Bovine Serum as a nutrient source. At specific time points, cultured cells were collected for various assays i.e., cell adhesion assays, cell proliferation assays, and cell differentiation studies.
Proliferation: Cell proliferation was tested using a PicoGreen dsDNA assay kit (Molecular Probes, Eugene, Oreg.) The procedure of the PicoGreen dsDNA assay was performed according to the manufacturer's instructions. Briefly, 5×10^4 cells ml^−1 were seeded in a well of a tissue culture plate. 100 μM of 6-Bnz-cAMP was added to the regular growth medium during cell seeding. The regular growth medium and 6-Bnz-cAMP (100 μM) were replaced every 3 to 4 days.

Runx2 = Runx2 expression by SDS-PAGE and Western blotting; format: cell-based; conditions: day 21
Procedure: FIG. 4. […] It is thought that Runx2 serves as a gatekeeper to promote osteogenesis, thus it is one of the most important marker for osteogenesis. In the control panel, consistent with the reported data in literature, Runx2 was detected in the presence of osteogenic medium but remain undetectable level without the osteogenic medium. […] The blot of tubulin serves as loading control for each sample loading.
Differentiation: Osteogenic protein markers were analyzed SDS-PAGE and Western Blotting. Protein samples were resolved by SDS-PAGE on precast 12.5% […] gels (Bio-Rad, Hercules, Calif.) and transferred electrophoretically onto polyvinylidene difluoride membranes according to the manufacturer's instructions (Bio-Rad, Hercules, Calif.). Membranes were blocked with skim milk and then probed with respective antibodies. […]
MC3T3E1 cells expressed classic markers for the osteoblastic phenotype in the presence of 6-Bnz-cAMP in the absence of osteogenic medium in samples collected at day 21. The level of Runx2, a bone-specific transcription factor which increases bone formation through the stimulation of bone-marker gene transcription in osteoblasts, was detected by immunoblotting (FIG. 4). In the control panel, Runx2 was detected in the presence of osteogenic medium but remain undetectable level without the osteogenic medium. […]

[1] = test system: rat mesenchymal stem cells; experiment: Quantitative calcium levels in mesenchymal stem cells; format: cell-based; conditions: vs control untreated cells and cells supplemented with BMP-2 peptide
Procedure: FIG. 9. Quantitative calcium levels determined in untreated (control) rat mesenchymal stem cells and cells treated with BMP-2 or 6-Bnz-cAMP. Keys: D-BMP-2 peptide; E-6-Bnz-cAMP; F-Control.
Cell adhesion, proliferation, and differentiation studies: Rabbit MSCs are plated onto PLAGA matrices at a plating density of 1×10^4 cells/cm^2 and cultured in standard basal medium. Four experimental groups are tested: (1) untreated cells, (2) 6-Bnz-cAMP treated cells, (3) BMP-2 treated cells, and (4) 6-Bnz-cAMP and BMP-2 treated cells. […] Initial cell adhesion is determined at 1 h, 3 h, 12 h, and 24 h. Cell proliferation and cell differentiation are determined at 1, 7, 14, and 21 days. Calcium deposition and ALP activity is also measured at days 3, 7, 14, and 21 in untreated cells compared to cells treated with BMP-2 or 6-Bnz-cAMP (FIGS. 9 and 10). […] For the cell adhesion assay, attached cells are quantified by crystal violet stain, a method routinely used to measure the initial cell adhesion. Cell proliferation is measured using a commercially available proliferation assay kit, MTS (Promega). For alkaline phosphatase (ALP) activity, the early markers of osteoblast differentiation are determined with a commercially availia ALP assay kit (Bio-rad). […] PCR amplification will be carried out and the resulting products will be analyzed by DNA gel electrophoresis and sequencing. […]

[2] = test system: rat mesenchymal stem cells; experiment: ALP activity in mesenchymal stem cells; format: cell-based; conditions: vs untreated control; day 7
Procedure: FIG. 10. ALP activity in untreated (control) rat mesenchymal stem cells and cells treated with BMP-2 or 6-Bnz-cAMP. A-BMP-2 peptide; E-6-Bnz-cAMP; F-Control. […] ALP activities of mesenchymal stem cells were induced by 6-Bnz-cAMP at day 7.
Cell adhesion, proliferation, and differentiation studies: Rabbit MSCs are plated onto PLAGA matrices at a plating density of 1×10^4 cells/cm^2 and cultured in standard basal medium. Four experimental groups are tested: (1) untreated cells, (2) 6-Bnz-cAMP treated cells, (3) BMP-2 treated cells, and (4) 6-Bnz-cAMP and BMP-2 treated cells. […] Initial cell adhesion is determined at 1 h, 3 h, 12 h, and 24 h. Cell proliferation and cell differentiation are determined at 1, 7, 14, and 21 days. Calcium deposition and ALP activity is also measured at days 3, 7, 14, and 21 in untreated cells compared to cells treated with BMP-2 or 6-Bnz-cAMP (FIGS. 9 and 10). […] For the cell adhesion assay, attached cells are quantified by crystal violet stain, a method routinely used to measure the initial cell adhesion. Cell proliferation is measured using a commercially available proliferation assay kit, MTS (Promega). For alkaline phosphatase (ALP) activity, the early markers of osteoblast differentiation are determined with a commercially availia ALP assay kit (Bio-rad). […]

Epac-Rap1 pathway = conditions: unlike cAMP; cited from earlier work
phophodiesterase = conditions: cited from earlier work

## O=C(Nc1ncnc2c1ncn2C1O[C@@H]2COP(=O)([O-])O[C@H]2[C@H]1O)c1ccccc1.[Na+] (some centres unmarked) [6-Bnz-cAMP, N^6-Benzoyladenosine-3′,5′-cyclic monophosphate]
MC3T3E1 cells; Days 7, 14 and 21
  proliferation rate: maintained
MC3T3E1 cells; first day of culturing (Day 1)
  cell growth: promote cell growth
Runx2; 100 μM, absence of osteogenic medium
  expression of Runx2: induces the expression of Runx2
Runx2; osteogenic medium together with 6-Bnz-cAMP, vs 6-Bnz-cAMP alone
  expression of Runx2: further enhanced the expression of Runx2
[1]
  calcium deposition: further enhanced calcium deposition
[2]
  ALP activity: increases ALP activity
Epac-Rap1 pathway
  activation of the Epac-Rap1 pathway: does not activate
phophodiesterase
  hydrolysis by phophodiesterase: resistant to hydrolysis

From US20110217337A1, “BIOACTIVE AGENT FOR BONE TISSUE ENGINEERING” (UNIVERSITY OF CONNECTICUT, priority 2010, published 2011)
